In patent publication US8188306B2, “Heat shock protein 90 inhibitors” (University of Kansas, priority 2004, dated 2012):

Biological target: T1, Recombinant yeast Hsp90 (Saccharomyces cerevisiae, UniProt P02829)
T1 construct: made in house
Assay: Inhibition of Hsp90 ATPase activity, production of inorganic phosphate
Type: biochemical
Settings: incubated with ATP
Protocol: The present invention also evaluated the biological activity of some of the RAD amides prepared in accordance with the present invention. Recombinant yeast Hsp90 was overexpressed and purified according to the procedure of Buchner. Richter, et al., Coordinated ATP Hydrolysis by the Hsp90 Dimer. […] The yeast was a kind gift from Boris Kornikaeve at the University of Kansas Biomedical Research Service Laboratory.
The pure protein was incubated with ATP and one of three RAD amides (the quinone, the 1,4-hydroxy, or the 1,4-methoxy), and the production of inorganic phosphate was determined.

T1 sequence (P02829 whole entry): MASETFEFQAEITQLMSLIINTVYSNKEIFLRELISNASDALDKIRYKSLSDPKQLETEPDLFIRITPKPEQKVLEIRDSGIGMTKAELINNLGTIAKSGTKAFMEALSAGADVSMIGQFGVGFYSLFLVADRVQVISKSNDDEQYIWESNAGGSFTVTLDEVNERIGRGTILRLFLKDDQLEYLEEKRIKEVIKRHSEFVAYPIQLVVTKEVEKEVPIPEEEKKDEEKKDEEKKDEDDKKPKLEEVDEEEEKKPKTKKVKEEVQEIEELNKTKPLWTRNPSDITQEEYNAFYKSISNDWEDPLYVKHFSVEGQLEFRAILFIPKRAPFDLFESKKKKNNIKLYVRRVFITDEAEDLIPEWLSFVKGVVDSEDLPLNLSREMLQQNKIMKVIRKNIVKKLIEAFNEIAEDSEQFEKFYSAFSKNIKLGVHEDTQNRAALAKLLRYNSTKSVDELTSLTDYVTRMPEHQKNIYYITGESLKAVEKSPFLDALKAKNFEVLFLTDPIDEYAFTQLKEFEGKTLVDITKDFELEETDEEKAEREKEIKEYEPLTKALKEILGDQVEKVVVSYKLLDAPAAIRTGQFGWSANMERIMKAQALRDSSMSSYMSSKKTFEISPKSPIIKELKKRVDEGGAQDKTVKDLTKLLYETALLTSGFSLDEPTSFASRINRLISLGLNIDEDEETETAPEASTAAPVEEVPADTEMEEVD

With `COC(=O)c1c(O)cc(O)c(Cl)c1CCC(=O)NC1=CC(=O)C(OC)=CC1=O` [Quinone] the IC50 (IC50 (μm), table) was 5.9 µM and the IC50 (IC50 / inhibitory activity) was 1.8 µM.
